Literature values in PubChem BioAssay AID1259409 (Chemical Carcinogenesis Research Information System (CCRIS), 2018).

Tested on: rodent chemically induced tumor inhibition, incidence and multiplicity
Test: CCRIS tumor inhibitor studies
Conditions: Carcinogen: 4-(METHYLNITROSAMINO)-1-(3-PYRIDYL)-1-BUTANONE, 64091-91-4, Dose [Inhibitor]: 0, Promoter: NONE USED
Text: The CCRIS database contains chemical records with carcinogenicity, mutagenicity, tumor promotion, and tumor inhibition test results. It was developed by the National Cancer Institute (NCI). Data are derived from studies cited in primary journals, current awareness tools, NCI reports, and other sources. Test results have been reviewed by experts in carcinogenesis and mutagenesis.
CCRIS provides historical information from the years 1985 - 2011. It is no longer updated.
This is an archive assay for CCRIS tumor inhibitor studies.

## S=C=NCCc1ccccc1
1 UMOL ONCE 2 HR PRIOR TO CARCINOGEN DOSE (STUDY DURATION: 16 WK), Route [Inhibitor]: GAVAGE, Species: MOUSE, Strain/Sex: STRAIN-A/FEMALE, Target Tissue: Type of Lesion: LUNG: ADENOMA, Dose [Carcinogen]: 10 UMOL IN 0.1 ML SALINE ONCE
  tumour outcome (control, treated, inhibition, significance): 100%, 100%, 0%, not significant
1 UMOL/G DIET FOR 15 WK BEGINNING 1 WK POST CARCINOGEN DOSE (STUDY DURATION: 16 WK), Route [Inhibitor]: ORAL, Species: MOUSE, Strain/Sex: STRAIN-A/FEMALE, Target Tissue: Type of Lesion: LUNG: ADENOMA, Dose [Carcinogen]: 10 UMOL ONCE
  tumour outcome (control, treated, inhibition, significance): 100%, 100%, 0%, not significant
3 UMOL/G DIET FOR 15 WK BEGINNING 1 WK POST CARCINOGEN DOSE (STUDY DURATION: 16 WK), Route [Inhibitor]: ORAL, Species: MOUSE, Strain/Sex: STRAIN-A/FEMALE, Target Tissue: Type of Lesion: LUNG: ADENOMA, Dose [Carcinogen]: 10 UMOL ONCE
  tumour outcome (control, treated, inhibition, significance): 100%, 100%, 0%, not significant
3 UMOL/G DIET FOR 21 WK BEGINNING 1 WK PRIOR TO FIRST CARCINOGEN DOSE (STUDY DURATION: 104 WK), Route [Inhibitor]: ORAL, Species: RAT, Strain/Sex: F344/MALE, Target Tissue: Type of Lesion: LIVER: ADENOMA, Dose [Carcinogen]: 1.76 MG/KG 3/WK FOR 20 WK
  tumour outcome (control, treated, inhibition, significance): 12/40 (30%), 9/40 (23%), 23%, not calculated
3 UMOL/G DIET FOR 21 WK BEGINNING 1 WK PRIOR TO FIRST CARCINOGEN DOSE (STUDY DURATION: 104 WK), Route [Inhibitor]: ORAL, Species: RAT, Strain/Sex: F344/MALE, Target Tissue: Type of Lesion: LIVER: CARCINOMA, Dose [Carcinogen]: 1.76 MG/KG 3/WK FOR 20 WK
  tumour outcome (control, treated, inhibition, significance): 3/40 (8%), 5/40 (13%), -63%, not calculated
3 UMOL/G DIET FOR 21 WK BEGINNING 1 WK PRIOR TO FIRST CARCINOGEN DOSE (STUDY DURATION: 104 WK), Route [Inhibitor]: ORAL, Species: RAT, Strain/Sex: F344/MALE, Target Tissue: Type of Lesion: LUNG: ADENOMA, Dose [Carcinogen]: 1.76 MG/KG 3/WK FOR 20 WK
  tumour outcome (control, treated, inhibition, significance): 8/40 (20%), 5/40 (13%), 35%, not calculated
3 UMOL/G DIET FOR 21 WK BEGINNING 1 WK PRIOR TO FIRST CARCINOGEN DOSE (STUDY DURATION: 104 WK), Route [Inhibitor]: ORAL, Species: RAT, Strain/Sex: F344/MALE, Target Tissue: Type of Lesion: LUNG: CARCINOMA, Dose [Carcinogen]: 1.76 MG/KG 3/WK FOR 20 WK
  tumour outcome (control, treated, inhibition, significance): 24/40 (60%), 12/40 (30%), 50%, not calculated
3 UMOL/G DIET FOR 21 WK BEGINNING 1 WK PRIOR TO FIRST CARCINOGEN DOSE (STUDY DURATION: 104 WK), Route [Inhibitor]: ORAL, Species: RAT, Strain/Sex: F344/MALE, Target Tissue: Type of Lesion: NASAL CAVITY: BENIGN TUMOR, Dose [Carcinogen]: 1.76 MG/KG 3/WK FOR 20 WK
  tumour outcome (control, treated, inhibition, significance): 8/40 (20%), 6/40 (15%), 25%, not calculated
3 UMOL/G DIET FOR 21 WK BEGINNING 1 WK PRIOR TO FIRST CARCINOGEN DOSE (STUDY DURATION: 104 WK), Route [Inhibitor]: ORAL, Species: RAT, Strain/Sex: F344/MALE, Target Tissue: Type of Lesion: NASAL CAVITY: SQUAMOUS CELL CARCINOMA, Dose [Carcinogen]: 1.76 MG/KG 3/WK FOR 20 WK
  tumour outcome (control, treated, inhibition, significance): 3/40 (8%), 7/40 (3%), 63%, not calculated
3 UMOL/G OF DIET FOR 112 WK BEGINNING 1 WK PRIOR TO CARCINOGEN TREATMENT (STUDY DURATION: 112 WK), Route [Inhibitor]: ORAL, Species: RAT, Strain/Sex: F344/MALE, Target Tissue: Type of Lesion: HEMATOPOIETIC SYSTEM: LEUKEMIA OR LYMPHOMA, Dose [Carcinogen]: 2 PPM IN DRINKING WATER FOR 111 WK
  tumour outcome (control, treated, inhibition, significance): 26/56 (46%), 28/59 (47%), -2%, not significant
3 UMOL/G OF DIET FOR 112 WK BEGINNING 1 WK PRIOR TO CARCINOGEN TREATMENT (STUDY DURATION: 112 WK), Route [Inhibitor]: ORAL, Species: RAT, Strain/Sex: F344/MALE, Target Tissue: Type of Lesion: LIVER: ADENOMA OR CARCINOMA, Dose [Carcinogen]: 2 PPM IN DRINKING WATER FOR 111 WK
  tumour outcome (control, treated, inhibition, significance): 5/55 (9%), 2/56 (4%), 56%, not significant
3 UMOL/G OF DIET FOR 112 WK BEGINNING 1 WK PRIOR TO CARCINOGEN TREATMENT (STUDY DURATION: 112 WK), Route [Inhibitor]: ORAL, Species: RAT, Strain/Sex: F344/MALE, Target Tissue: Type of Lesion: LUNG: ADENOCARCINOMA, Dose [Carcinogen]: 2 PPM IN DRINKING WATER FOR 111 WK
  tumour outcome (control, treated, inhibition, significance): 23/56 (41%), 1/59 (2%), 95%, p=0.00001
3 UMOL/G OF DIET FOR 112 WK BEGINNING 1 WK PRIOR TO CARCINOGEN TREATMENT (STUDY DURATION: 112 WK), Route [Inhibitor]: ORAL, Species: RAT, Strain/Sex: F344/MALE, Target Tissue: Type of Lesion: LUNG: ADENOMA, Dose [Carcinogen]: 2 PPM IN DRINKING WATER FOR 111 WK
  tumour outcome (control, treated, inhibition, significance): 16/56 (29%), 2/59 (3%), 90%, p=0.0002
3 UMOL/G OF DIET FOR 112 WK BEGINNING 1 WK PRIOR TO CARCINOGEN TREATMENT (STUDY DURATION: 112 WK), Route [Inhibitor]: ORAL, Species: RAT, Strain/Sex: F344/MALE, Target Tissue: Type of Lesion: NASAL CAVITY: PAPILLOMA OR CARCINOMA, Dose [Carcinogen]: 2 PPM IN DRINKING WATER FOR 111 WK
  tumour outcome (control, treated, inhibition, significance): 1/48 (2%), 0/53 (0%), 100%, not significant
3 UMOL/G OF DIET FOR 112 WK BEGINNING 1 WK PRIOR TO CARCINOGEN TREATMENT (STUDY DURATION: 112 WK), Route [Inhibitor]: ORAL, Species: RAT, Strain/Sex: F344/MALE, Target Tissue: Type of Lesion: PANCREAS (ENDOCRINE): BENIGN TUMOR, Dose [Carcinogen]: 2 PPM IN DRINKING WATER FOR 111 WK
  tumour outcome (control, treated, inhibition, significance): 5/52 (10%), 7/59 (12%), -20%, not significant
3 UMOL/G OF DIET FOR 112 WK BEGINNING 1 WK PRIOR TO CARCINOGEN TREATMENT (STUDY DURATION: 112 WK), Route [Inhibitor]: ORAL, Species: RAT, Strain/Sex: F344/MALE, Target Tissue: Type of Lesion: PANCREAS (EXOCRINE): BENIGN TUMOR, Dose [Carcinogen]: 2 PPM IN DRINKING WATER FOR 111 WK
  tumour outcome (control, treated, inhibition, significance): 1/52 (2%), 8/59 (14%), -600%, p=0.025
